US20240216413A1, “THIONUCLEOSIDES AS ANTIVIRAL AGENTS” (priority 2021, published 2024)
pEC50: −log10 of the molar value. Like-named read-outs stand apart in the source and are kept apart here.

Legend:
SARS-CoV-2 [1] = assay: Anti-SARS-CoV-2 activity (Caco2); conditions: Severe acute respiratory syndrome coronavirus 2, Caco-2, 72 h; for pEC50: read-out: Anti-SARS-CoV-2 Activity (Caco2) EC50
[2] = Cytotoxicity in Vero cells; conditions: African green monkey, Vero cells (kidney)
in vitro [3] = conditions: human, Caco-2
[4] = test system: mitochondrial DNA (COXII gene); assay: Mitochondrial toxicity in HepG2 cells (MtDNA / rDNA); conditions: human, HepG2 cells
HepG2 cells = assay: as above; conditions: Homo sapiens
[5] = test system: rDNA (rRNA gene, nuclear reference); assay: as above; conditions: human, HepG2 cells
[6] = Cytotoxicity in Huh7 cells; format: cell-based; conditions: human
SARS-CoV-2 [7] = assay: Anti-SARS-CoV-2 activity (Calu3); format: cell-based
SARS-CoV-2 [8] = assay: Anti-SARS-CoV-2 activity, 3D primary culture (Organoids); format: cell-based
Omicron [9] = assay: Anti-Omicron activity (Calu-3); format: cell-based, SARS-CoV-2
in vitro [10] = conditions: human
[11] = Cytotoxicity in PBM cells; format: cell-based; conditions: human
Experimental: (§1) The toxicity of the compounds was assessed in Vero, human PBM, CEM (human lymphoblastoid), MT-2, and HepG2 cells, as described previously (see Schinazi R. F., Sommadossi J.-P., Saalmann V., Cannon D. L., Xie M.-Y., Hart G. C., Smith G. A. & Hahn E. F. Antimicrob. Agents Chemother. 1990, 34, 1061-67). Cycloheximide was included as positive cytotoxic control, and untreated cells exposed to solvent were included as negative controls. The cytotoxicity IC50 or CC50 was obtained from the concentration-response curve using the median effective method described previously (see Chou T.-C. & Talalay P. Adv. Enzyme Regul. 1984, 22, 27-55; Belen'kii M. S. & Schinazi R. F. Antiviral Res. 1994, 25, 1-11).

SARS-CoV-2 [12] = assay: Anti-SARS-CoV-2 activity, 3D primary culture (HAE-ALI); format: cell-based; conditions: Severe acute respiratory syndrome coronavirus 2, air-liquid interface
[13] = Cytotoxicity in CEM cells; format: cell-based; conditions: human, CEM lymphoblastoid cells
Experimental: as §1

Omicron [14] = assay: microbe, parasite or virus in culture; conditions: for EC90: Severe acute respiratory syndrome coronavirus 2, Caco-2, read-out: Anti-Omicron Activity (Caco-2) EC90
SARS-CoV-2 [15] = assay: Anti-SARS-CoV-2 activity (Vero); format: cell-based; conditions: Severe acute respiratory syndrome coronavirus 2, MOI 0.1, 48 hr
HCoV-OC43 = assay: Anti-HCoV-OC43 activity; format: cell-based
[16] = Severe acute respiratory syndrome coronavirus 2, Calu-3, Calu3, MOI 1.0, 72 hr
[17] = Severe acute respiratory syndrome coronavirus 2, Caco-2, read-out: Anti-Omicron Activity (Caco-2) EC50
[18] = Severe acute respiratory syndrome coronavirus 2, Omicron, Calu-3, read-out: Anti-Omicron Activity (Calu-3) EC50
[19] = Severe acute respiratory syndrome coronavirus 2, Omicron, Calu-3, read-out: Anti-Omicron Activity (Calu-3) EC90

With `O=c1ccn([C@@H]2S[C@H](CO)[C@@H](O)[C@H]2O)c(=O)[nH]1` [Compound 8, 1-((2R,3R,4S,5R)-3,4-dihydroxy-5-(hydroxymethyl)tetrahydrothiophen-2-yl)pyrimidine-2,4(1H,3H)-dione] the pEC50 (SARS-CoV-2 [1]) was 5.96, the CC50 [2] was 68.3 µM and the CC50 (in vitro [3]) was greater than 100 µM. For the same molecule, the CC50 at 7 days [4] was greater than 100 µM, the inhibition at 100 µM (HepG2 cells; HepG2, read-out: inhibition of MtDNA at 100 μM) was less than 1% and the inhibition at 100 µM (HepG2 cells; HepG2, read-out: inhibition of rDNA at 100 μM) was 36.3%. It also gave a CC50 at 7 days [5] greater than 100 µM, a CC50 [6] greater than 100 µM and an EC90 (SARS-CoV-2 [7]; [16]) of 3.5 µM. The pEC50 (SARS-CoV-2 [8]; Severe acute respiratory syndrome coronavirus 2, 3D primary culture, organoids, read-out: Anti-SARS-CoV-2 Activity (Organoids) EC50) was 6.15, the pEC50 (Omicron [9]; Severe acute respiratory syndrome coronavirus 2, Calu-3, read-out: Anti-Omicron Activity (Calu-3) EC50) was 5.89 to 6.05 and the EC90 (Omicron [9]; Severe acute respiratory syndrome coronavirus 2, Calu-3, read-out: Anti-Omicron Activity (Calu-3) EC90) was 2.7 to 4.4 µM. The CC50 (in vitro [10]) was greater than 100 µM, the CC50 [11] was greater than 100 µM and the pEC50 (SARS-CoV-2 [12]) was 7.40. For the same molecule, the EC90 (SARS-CoV-2 [12]) was 0.1 µM, the CC50 [13] was 20.5 µM and the pEC50 (Omicron [14]; [17]) was 5.09. For the same molecule, the EC90 (Omicron [14]) was greater than 10 µM, the pEC50 (SARS-CoV-2 [15]) was 6.40 and the EC90 (SARS-CoV-2 [15]) was 0.8 µM. The pEC50 (HCoV-OC43; Betacoronavirus 1, OC43, read-out: Anti-HCoV-OC43 Activity EC50) was 5.60 to 5.66 and the EC90 (HCoV-OC43; Betacoronavirus 1, OC43, read-out: Anti-HCoV-OC43 Activity EC90) was 6.1 to 7.3 µM.

Work on `CC(C)OC(=O)[C@H](C)N[P@](=O)(OC[C@H]1S[C@@H](n2ccc(=O)[nH]c2=O)[C@H](O)[C@@H]1O)Oc1ccccc1` [Compound 13, Isopropyl ((S)-(((2R,3S,4R,5R)-5-(2,4-dioxo-3,4-dihydropyrimidin-1(2H)-yl)-3,4-dihydroxytetrahydrothiophen-2-yl)methoxy)(phenoxy)phosphoryl)-L-alaninate] yielded a CC50 [2] greater than 100 µM, a CC50 [6] greater than 100 µM and a CC50 [11] greater than 100 µM. For the same molecule, the CC50 [13] was greater than 100 µM and the pEC50 (SARS-CoV-2 [15]) was less than 5.00.

Molecule `Nc1ccn([C@@H]2S[C@H](CO)[C@@H](O)[C@H]2O)c(=O)n1` [Compound 9, 4-amino-1-((2R,3R,4S,5R)-3,4-dihydroxy-5-(hydroxymethyl)tetrahydrothiophen-2-yl)pyrimidin-2(1H)-one] has a pEC50 (SARS-CoV-2 [1]) of 5.31, an EC90 (SARS-CoV-2 [1]; read-out: Anti-SARS-CoV-2 Activity (Caco2) EC90) greater than 10 µM and a CC50 [2] of 71.8 µM. It also gave a CC50 [6] of 93.1 µM, a pEC50 (SARS-CoV-2 [7]; [16]) of 5.72 and an EC90 (SARS-CoV-2 [7]; [16]) of 3.9 µM. It also gave a CC50 [11] greater than 100 µM, a CC50 [13] of 28 µM and a pEC50 (SARS-CoV-2 [15]) of 6.70. For the same molecule, the EC90 (SARS-CoV-2 [15]) was 4.5 µM.

For `O=c1nc(NO)ccn1[C@@H]1O[C@H](CO)[C@@H](O)[C@H]1O` [NHC, N4-hydroxycytidine], the CC50 [2] was 16.5 µM, the pEC50 (Omicron [9]; [18]) was 6.40 and the EC90 (Omicron [9]; [19]) was 1.2 µM. It also gave a CC50 [13] of 2.6 µM, a pEC50 (Omicron [14]; [17]) of less than 5.00 and a pEC50 (Omicron [14]; Severe acute respiratory syndrome coronavirus 2, Caco-2, read-out: Anti-Omicron Activity (Caco-2) EC50, value in parentheses) of 4.88.

`CCC(CC)COC(=O)[C@H](C)N[P@](=O)(OC[C@H]1O[C@@](C#N)(c2ccc3c(N)ncnn23)[C@H](O)[C@@H]1O)Oc1ccccc1` [Remdesivir, reference compound] showed a CC50 [6] of 1.5 µM, a pEC50 (SARS-CoV-2 [7]; Severe acute respiratory syndrome coronavirus 2, Calu-3, 72 h) of 7.00 and a pEC50 (SARS-CoV-2 [8]; Severe acute respiratory syndrome coronavirus 2, read-out: Anti-SARS-CoV-2 Activity (Organoids) EC50) of 6.15. The EC90 (SARS-CoV-2 [8]; Severe acute respiratory syndrome coronavirus 2, 3D primary culture, organoids) was 1.5 µM, the pEC50 (Omicron [9]; [18]) was 6.52 to 6.70 and the EC90 (Omicron [9]; [19]) was 0.6 to 0.7 µM. It also gave a CC50 [11] of 6.4 µM, a pEC50 (SARS-CoV-2 [12]) of 6.22 and a CC50 [13] of 12 µM. The pEC50 (Omicron [14]; [17]) was 7.30, the EC90 (Omicron [14]) was 0.4 µM and the pEC50 (HCoV-OC43; Betacoronavirus 1, OC43; read-out: Anti-HCoV-OC43 Activity EC50) was 7.52 to 8.15. It also gave an EC90 (HCoV-OC43; Betacoronavirus 1, OC43; read-out: Anti-HCoV-OC43 Activity EC90) of 0.03 to 0.08 µM.

For `O=c1nc(NO)ccn1[C@@H]1S[C@H](CO)C(O)C1O` (stereo in doubt) [Compound 17, 1-((2R,3S,4R,5R)-3,4-dihydroxy-5-(hydroxymethyl)-tetrahydrothiophen-2-yl)-4-(hydroxyamino) pyrimidin-2(1H)-one], the CC50 [2] was greater than 100 µM, the CC50 [6] was greater than 100 µM and the pEC50 (SARS-CoV-2 [7]; [16]) was greater than 5.00. For the same molecule, the CC50 [11] was greater than 100 µM and the pEC50 (SARS-CoV-2 [15]) was greater than 5.00.

`CC(C)OC(=O)[C@H](C)N[P@](=O)(OC[C@H]1S[C@@H](n2ccc(N)nc2=O)[C@H](O)[C@@H]1O)Oc1ccccc1` [Compound 16, Isopropyl ((S)-(((2R,3S,4R,5R)-5-(4-amino-2-oxopyrimidin-1(2H)-yl)-3,4-dihydroxytetrahydrothiophen-2-yl)methoxy)(phenoxy)phosphoryl)-L-alaninate] gave a CC50 [2] greater than 100 µM, a CC50 [6] greater than 100 µM and a CC50 [11] greater than 100 µM. For the same molecule, the CC50 [13] was greater than 100 µM and the pEC50 (SARS-CoV-2 [15]) was less than 5.00.

With `C[C@@H]1C[C@@H]([C@H](O)CC2CC(=O)NC(=O)C2)C(=O)[C@@H](C)C1` [cyclohexamide, Cycloheximide, reference compound] the CC50 (in vitro [3]) was 10 µM and the CC50 (in vitro [10]) was 10 µM.
